Test results: patent EP3002287B1, “Thiochromeno[2,3-c]quinolin-12-one derivatives and their use as topoisomerase inhibitors” (National Defense Medical Center, priority 2014, dated 2016)

Assays:
Test in all cases: NCI in vitro 60-cell drug screen (SRB assay)
Assay type in all cases: cell-based
[1] = tested on: K-562; details: K-562 (Leukemia); 10^-5 molar concentration; 48 hours
[2] = tested on: MOLT-4; details: MOLT-4 (Leukemia); 10^-5 molar concentration; 48 hours
[3] = tested on: RPMI-8226; details: RPMI-8226 (Leukemia); 10^-5 molar concentration; 48 hours
[4] = tested on: SR; details: SR (Leukemia); 10^-5 molar concentration; 48 hours
[5] = tested on: A549/ATCC; details: A549/ATCC (Non-small cell lung cancer); 10^-5 molar concentration; 48 hours
[6] = tested on: HOP-62; details: HOP-62 (Non-small cell lung cancer); 10^-5 molar concentration; 48 hours
[7] = tested on: NCI-H226; details: NCI-H226 (Non-small cell lung cancer); 10^-5 molar concentration; 48 hours
[8] = tested on: NCI-H23; details: NCI-H23 (Non-small cell lung cancer); 10^-5 molar concentration; 48 hours
[9] = tested on: NCI-H322M; details: NCI-H322M (Non-small cell lung cancer); 10^-5 molar concentration; 48 hours
[10] = tested on: NCI-H460; details: NCI-H460 (Non-small cell lung cancer); 10^-5 molar concentration; 48 hours
[11] = tested on: NCI-H522; details: NCI-H522 (Non-small cell lung cancer); 10^-5 molar concentration; 48 hours
[12] = tested on: HCC-2998; details: HCC-2998 (Colon cancer); 10^-5 molar concentration; 48 hours
[13] = tested on: HCT-116; details: HCT-116 (Colon cancer); 10^-5 molar concentration; 48 hours
[14] = tested on: SW-620; details: SW-620 (Colon cancer); 10^-5 molar concentration; 48 hours
[15] = tested on: SF-268; details: SF-268 (CNS cancer); 10^-5 molar concentration; 48 hours
[16] = tested on: SF-539; details: SF-539 (CNS cancer); 10^-5 molar concentration; 48 hours
[17] = tested on: SNB-19; details: SNB-19 (CNS cancer); 10^-5 molar concentration; 48 hours
[18] = tested on: SNB-75; details: SNB-75 (CNS cancer); 10^-5 molar concentration; 48 hours
[19] = tested on: LOX IMVI; details: LOX IMVI (Melanoma); 10^-5 molar concentration; 48 hours
[20] = tested on: M14; details: M14 (Melanoma); 10^-5 molar concentration; 48 hours
[21] = tested on: SK-MEL-5; details: SK-MEL-5 (Melanoma); 10^-5 molar concentration; 48 hours
[22] = tested on: UACC-257; details: UACC-257 (Melanoma); 10^-5 molar concentration; 48 hours
[23] = tested on: OVCAR-8; details: OVCAR-8 (Ovarian cancer); 10^-5 molar concentration; 48 hours
[24] = tested on: SK-OV-3; details: SK-OV-3 (Ovarian cancer); 10^-5 molar concentration; 48 hours
[25] = tested on: 786-0; details: 786-0 (Renal cancer); 10^-5 molar concentration; 48 hours
[26] = tested on: CAKI-1; details: CAKI-1 (Renal cancer); 10^-5 molar concentration; 48 hours
[27] = tested on: RXF 393; details: RXF 393 (Renal cancer); 10^-5 molar concentration; 48 hours
[28] = tested on: SN12C; details: SN12C (Renal cancer); 10^-5 molar concentration; 48 hours
[29] = tested on: UO-31; details: UO-31 (Renal cancer); 10^-5 molar concentration; 48 hours
[30] = tested on: PC-3; details: PC-3 (Prostate cancer); 10^-5 molar concentration; 48 hours
[31] = tested on: MCF7; details: MCF7 (Breast cancer); 10^-5 molar concentration; 48 hours
[32] = tested on: MDA-MB-231/ATCC; details: MDA-MB-231/ATCC (Breast cancer); 10^-5 molar concentration; 48 hours
[33] = tested on: HS 578T; details: HS 578T (Breast cancer); 10^-5 molar concentration; 48 hours
[34] = tested on: BT-549; details: BT-549 (Breast cancer); 10^-5 molar concentration; 48 hours

SMILES	Growth percent [1] [%]	Growth percent [2] [%]	Growth percent [3] [%]	Growth percent [4] [%]	Growth percent [5] [%]	Growth percent [6] [%]	Growth percent [7] [%]	Growth percent [8] [%]	Growth percent [9] [%]	Growth percent [10] [%]	Growth percent [11] [%]	Growth percent [12] [%]	Growth percent [13] [%]	Growth percent [14] [%]	Growth percent [15] [%]	Growth percent [16] [%]	Growth percent [17] [%]	Growth percent [18] [%]	Growth percent [19] [%]	Growth percent [20] [%]	other results
CN1CCN(c2nc3ccccc3c3c(=O)c4cc(Cl)ccc4sc23)CC1 [Compound 8, 10-Chloro-6-(4-methylpiperazin-1-yl)-12H-thiochromeno[2,3-c]q uinolin-12-one]	72.98	87.97	91.11	86.41	99.80	49.41	85.67	81.11	77.04	96.05	98.78	96.87	80.94	95.50	82.98	85.30	87.07	42.15	87.47	102.15	Growth percent [21]: 99.54%; Growth percent [22]: 100.55%; Growth percent [23]: 89.44%; Growth percent [24]: 75.11%; Growth percent [25]: 90.48%; Growth percent [26]: 87.50%; Growth percent [27]: 88.57%; Growth percent [28]: 83.03%; Growth percent [29]: 48.97%; Growth percent [30]: 84.81%; Growth percent [31]: 76.60%; Growth percent [32]: 57.30%; Growth percent [33]: 65.57%; Growth percent [34]: 96.25%
O=c1c2ccc(Cl)cc2sc2c(Cl)nc3ccccc3c12 [Compound 3, 6,9-Dichloro-12H-thiochromeno[2,3-c]quinolin-12-one]	101.04	98.04	100.19	89.02	104.74	82.02	83.41	85.12	100.12	103.14	96.81	123.28	102.27	99.06	109.60	89.02	107.89	77.88	90.53	106.18	Growth percent [21]: 97.42%; Growth percent [22]: 104.47%; Growth percent [23]: 101.62%; Growth percent [24]: 101.32%; Growth percent [25]: 105.25%; Growth percent [26]: 94.31%; Growth percent [27]: 102.55%; Growth percent [28]: 95.92%; Growth percent [29]: 66.06%; Growth percent [30]: 91.59%; Growth percent [31]: 82.58%; Growth percent [32]: 84.28%; Growth percent [33]: 95.14%; Growth percent [34]: 110.01%
CN(C)c1nc2ccccc2c2c(=O)c3cc(Cl)ccc3sc12 [Compound 6, 10-Chloro-6-dimethylamino-12H-thiochromeno[2,3-c]quinolin-12-one]	99.71	97.52	98.20	95.68	94.16	43.62	96.20	77.00	83.74	88.86	70.42	97.20	74.26	105.18	77.86	72.72	76.46	15.29	86.53	94.36	Growth percent [21]: 97.92%; Growth percent [22]: 109.22%; Growth percent [23]: 68.53%; Growth percent [24]: 41.57%; Growth percent [25]: 87.00%; Growth percent [27]: 83.17%; Growth percent [28]: 99.49%; Growth percent [29]: 73.81%; Growth percent [30]: 81.25%; Growth percent [31]: 22.19%; Growth percent [32]: 71.03%; Growth percent [33]: 60.38%; Growth percent [34]: 92.96%
COc1nc2ccccc2c2c(=O)c3cc(Cl)ccc3sc12 [Compound 5, 10-Chloro-6-methoxy-12H-thiochromeno[2,3-c]quinolin-12-one]	95.83	80.62	102.86	88.18	100.46	69.64	98.57	80.14	90.77	101.23	92.71	104.67	89.48	103.05	94.12	86.13	89.36	52.28	91.21	88.40	Growth percent [21]: 99.74%; Growth percent [22]: 108.09%; Growth percent [23]: 91.82%; Growth percent [24]: 58.94%; Growth percent [25]: 99.15%; Growth percent [27]: 109.68%; Growth percent [28]: 98.74%; Growth percent [29]: 74.69%; Growth percent [30]: 92.46%; Growth percent [31]: 65.39%; Growth percent [32]: 78.12%; Growth percent [33]: 66.51%; Growth percent [34]: 94.85%
O=c1c2cc(Cl)ccc2sc2c(O)nc3ccccc3c12 [Compound 4, 10-Chloro-6-hydroxy-12H-thiochromeno[2,3-c]quinolin-12-one]	107.08	100.41	100.99	96.00	95.25	90.80	99.58	88.96	90.87	96.92	86.60	101.48	86.20	101.39	95.26	93.21	101.37	66.63	92.07	94.76	Growth percent [21]: 100.69%; Growth percent [22]: 108.36%; Growth percent [23]: 100.55%; Growth percent [24]: 94.40%; Growth percent [25]: 99.76%; Growth percent [27]: 116.94%; Growth percent [28]: 101.14%; Growth percent [29]: 76.44%; Growth percent [30]: 91.90%; Growth percent [31]: 69.90%; Growth percent [32]: 81.80%; Growth percent [33]: 113.28%; Growth percent [34]: 85.17%
